The values below come from US20250034088A1, “LIPIDS AND USES THEREOF” (TAIWAN BIO-MANUFACTURING CORPORATION, priority 2023, published 2025).

Data set [1] in a line: mRNA encapsulation efficiency by RiboGreen assay. It is filed as physicochemical. The conditions noted are these: FLuc mRNA-loaded LNP made with the lipid; for Encap)-sulation (%: Table 1. As for the experimental part: (§1) The Firefly luciferase (FLuc) reporter mRNA-loaded lipid nanoparticles (LNPs) were formulated by NANOASSEMBLR® IGNITE™. Briefly, the lipid, cholesterol, 1,2-dimyristoyl-rac-glycero-3-methoxypolyethylene glycol-2000 (DMG-PEG2000), and […] (DSPC) mixture was prepared in ethanolic solution at the % mole ratio of […]. Three units of FLuc mRNA was dissolved in 25 mM sodium acetate pH 5.0 buffer and one unit of lipid mixture were rapidly combined in the microfluidic mixing cartridge at an amine-to-phosphate (N/P) ratio constant at 6, and the instrument flow rate set at 12 mL/min. The mRNA-LNPs performed a 40-fold dilution of calcium and magnesium-free phosphate-buffered saline (PBS) to reach pH neutral. Then, LNPs were concentrated using Amicon® Ultra-15 Centrifugal Filter Unit.
(§2) The mRNA-LNPs were characterized in terms of hydrodynamic size (z-average diameter), zeta potential, and polydispersity index by ZETASIZER™ PRO BLUE (MALVERN PANALYTICAL®). A QUANT-IT™ RIBOGREEN assay kit (THERMOFISHER®) was conducted to identify the mRNA concentration and encapsulation efficiency. In brief, mRNA-LNPs were diluted in equal volumes of Tris/EDTA (TE) buffer or 2% Triton X-100 in TE buffer. After that, a RIBOGREEN reagent was added to each sample and incubated at 37° C. in absence of light for 15 min. The fluorescence intensity (Ex/Em 480/520 nm) was detected on a TECAN™ Microplate reader. The encapsulation efficiency (E.E) can be calculated by the formula:
E.E(%)=(Total mRNA concentration−Unencapsulated mRNA concentration)/(Total mRNA concentration)×100%

Data set [2] is described as follows: LNP hydrodynamic size, polydispersity index and zeta potential by Zetasizer. The data set is classed as physicochemical. The conditions noted are these: FLuc mRNA-loaded LNP. How it is done:
as §1
as §2, with “formula: […]” for “formula:”

The subject of data set [3] is HEPG2 cells. The data set can be described thus: Transfection efficiency of FLuc mRNA-LNPs in HEPG2 cells (luminescence). The data set is classed as cell-based. The conditions noted are these: 18 hours. As for the experimental part:
(§3) To investigate the potential and cytotoxicity of mRNA-LNP made from novel lipids, FLuc mRNA (TRILINK®) was encapsulated into LNPs and transfected to the cell line. HEPG2 cells were maintained at 37° C. under 5% CO2 in a DMEM medium with 10% fetal bovine serum. Cells were seeded at 4×10^4 cells/well and treated with FLuc mRNA-LNPs for 18 hours while cell confluency reach 70%. To explore transfection efficiency, HEPG2 cells were treated with D-luciferin and mixed thoroughly for another incubation of 5 min at 37° C. The luminescence intensity was recorded using M200 Microplate Reader (TECAN®). Cell viability was evaluated by Cell Counting Kit-8 (SIGMA-ALDRICH®) and the absorbance was measured at 450 nm.

The subject of data set [4] is HEPG2 cells. The data set is described as follows: Cytotoxicity in HEPG2 cells (Cell Counting Kit-8). The data set is classed as cell-based. The settings on record: FLuc mRNA-LNPs, 18 hours. As for the experimental part: as §3

Turning to `CCCCCCCCC(CCCCCCCC)OC(=O)CCCCO[C@H]1CN(CCO)C[C@H]1OCCCCC(=O)OC(CCCCCCCC)CCCCCCCC` [Compound 4, di(heptadecan-9-yl)5,5′-(((3S,4R)-1-(2-hydroxyethyl)pyrrolidine-3,4-diyl)bis(oxy))dipentanoate], the “Encap)-sulation (%” value in data set [1] is 98.43%. In addition, in data set [2] (Table 1), the “LNP zeta potential (mV)” value stood at 1.03 mV and the PDI came to 0.015. For the same molecule, in data set [2] (z-average diameter, Table 1), the “LNP size (nm)” value amounted to 79.20 nm.
The matching figures for `CCCCCCCCC(CCCCCCCC)OC(=O)CCO[C@H]1CN(CCCCO)C[C@H]1OCCC(=O)OC(CCCCCCCC)CCCCCCCC` [Compound 7, di(heptadecan-9-yl)3,3′-(((3R,4S)-1-(4-hydroxybutyl)pyrrolidine-3,4-diyl)bis(oxy))dipropionate]: 97.22%, 2.41 mV, 0.025 and 87.10 nm.
Take `CCCCCCCCCCC(CCCCCCCC)COC(=O)CCCCO[C@H]1CN(CCCCCCO)C[C@H]1OCCCCC(=O)OCC(CCCCCCCC)CCCCCCCCCC` (stereo partly drawn) [Compound 19, bis(2-octyldodecyl)5,5′-(((3R,4S)-1-(6-hydroxyhexyl)pyrrolidine-3,4-diyl)bis(oxy))dipentanoate]: in data set [1], the “Encap)-sulation (%” value was 97.31%. In addition, in data set [2] (Table 1), the “LNP zeta potential (mV)” value is given as 6.25 mV and the PDI was 0.05. The “LNP size (nm)” value in data set [2] (z-average diameter, Table 1) is listed as 79.74 nm.
The matching figures for `CCCCCCCCC(CCCCCCCC)OC(=O)CCO[C@H]1CN(CCO)C[C@H]1OCCC(=O)OC(CCCCCCCC)CCCCCCCC` [Compound 1, di(heptadecan-9-yl)3,3′-(((3R,4S)-1-(2-hydroxyethyl)pyrrolidine-3,4-diyl)bis(oxy))dipropionate]: 98.5%, −7.06 mV, 0.026 and 73.80 nm.
For `CCCCCCCCCCC(CCCCCCCC)COC(=O)CCCCO[C@H]1CN(CCCO)C[C@H]1OCCCCC(=O)OCC(CCCCCCCC)CCCCCCCCCC` (stereo partly drawn) [Compound 17, bis(2-octyldodecyl)5,5′-(((3R,4S)-1-(3-hydroxypropyl)pyrrolidine-3,4-diyl)bis(oxy))dipentanoate], in that order: 98.16%, 8.00 mV, 0.03 and 95.10 nm.
For `CCCCCCCCC(CCCCCCCC)OC(=O)CCCCCO[C@H]1CN(CCCCCO)C[C@H]1OCCCCCC(=O)OC(CCCCCCCC)CCCCCCCC` [Compound 12, di(heptadecan-9-yl)6,6′-(((3R,4S)-1-(5-hydroxypentyl)pyrrolidine-3,4-diyl)bis(oxy))dihexanoate], in that order: 96.99%, 7.83 mV, 0.039 and 78.35 nm.
Consider `CCCCCCCCC(CCCCCCCC)OC(=O)CCCCO[C@H]1CN(CCCO)C[C@H]1OCCCCC(=O)OC(CCCCCCCC)CCCCCCCC` [Compound 3, di(heptadecan-9-yl)5,5′-(((3S,4R)-1-(3-hydroxypropyl)pyrrolidine-3,4-diyl)bis(oxy))dipentanoate], for which, in data set [1], the “Encap)-sulation (%” value was 97.92%. Besides, in data set [2] (Table 1), the “LNP zeta potential (mV)” value was 6.98 mV and the PDI amounted to 0.016. For the same molecule, the “LNP size (nm)” value in data set [2] (z-average diameter, Table 1) was 98.84 nm.
For `CCCCCCC(CCCC)COC(=O)CCCCO[C@H]1CN(CCCCCO)C[C@H]1OCCCCC(=O)OCC(CCCC)CCCCCC` (stereo partly drawn) [Compound 21, bis(2-butyloctyl) 5,5′-(((3R,4S)-1-(5-hydroxypentyl)pyrrolidine-3,4-diyl)bis(oxy))dipentanoate], in that order: 98.87%, 14.91 mV, 0.0532 and 93.39 nm.
The matching figures for `CCCCCCCCCCC(CCCCCCCC)COC(=O)CCCCO[C@H]1CN(CCCCCO)C[C@H]1OCCCCC(=O)OCC(CCCCCCCC)CCCCCCCCCC` (stereo partly drawn) [Compound 18, bis(2-octyldodecyl)5,5′-(((3R,4S)-1-(5-hydroxypentyl)pyrrolidine-3,4-diyl)bis(oxy))dipentanoate]: 97.57%, 9.52 mV, 0.03 and 86.61 nm.
The matching figures for `CCCCCCCCC(CCCCCCCC)OC(=O)CCCCCO[C@H]1CN(CCCCO)C[C@H]1OCCCCCC(=O)OC(CCCCCCCC)CCCCCCCC` [Compound 13, di(heptadecan-9-yl)6,6′-(((3R,4S)-1-(4-hydroxybutyl)pyrrolidine-3,4-diyl)bis(oxy))dihexanoate]: 97.39%, 12.45 mV, 0.046 and 81.29 nm.
Consider `CCCCCCCCC(CCCCCC)C(=O)OCCCCCCO[C@H]1CN(CCCO)C[C@H]1OCCCCCCOC(=O)C(CCCCCC)CCCCCCCC` (stereo partly drawn) [Compound 14, (((3S,4R)-1-(3-hydroxypropyl)pyrrolidine-3,4-diyl)bis(oxy))bis(hexane-6,1-diyl)bis(hexyldecanoate)], for which the “Transfection efficiency (relative to SM-102, %)” value in the data set with HEPG2 cells [3] is given as 105%. Also, the “Cytotoxicity in HEPG2” value in the data set on HEPG2 cells [4] is “— (The toxicity of compounds 11 and 14 is less than 10%)”.
Consider `CCCCCCC(CCCC)COC(=O)CCCCO[C@H]1CN(CCCO)C[C@H]1OCCCCC(=O)OCC(CCCC)CCCCCC` (stereo partly drawn) [Compound 20, bis(2-butyloctyl) 5,5′-(((3R,4S)-1-(3-hydroxypropyl)pyrrolidine-3,4-diyl)bis(oxy))dipentanoate], for which the “Encap)-sulation (%” value in data set [1] is 97.36%. Besides, in data set [2] (Table 1), the “LNP zeta potential (mV)” value worked out at 15.00 mV and the PDI is 0.06. In data set [2] (z-average diameter, Table 1), the “LNP size (nm)” value is reported as 88.33 nm.
With `CCCCCCCCC(CCCCCCCC)OC(=O)CCCCCO[C@H]1CN(CCCO)C[C@H]1OCCCCCC(=O)OC(CCCCCCCC)CCCCCCCC` [Compound 11, di(heptadecan-9-yl)6,6′-(((3R,4S)-1-(3-hydroxypropyl)pyrrolidine-3,4-diyl)bis(oxy))dihexanoate], in data set [1], the “Encap)-sulation (%” value was 97.58%. In addition, the “Encapsulation (%)” value in data set [1] (Table 2) was 97.58%. Moreover, in data set [2] (Table 1), the “LNP zeta potential (mV)” value turned out to be 10.95 mV and the PDI amounted to 0.014. Besides, in data set [2] (Table 2), the “LNP size (nm)” value was 80.71 nm, the “LNP zeta potential (mV)” value is 10.95 mV and the PDI is given as 0.014. Further, the “LNP size (nm)” value in data set [2] (z-average diameter, Table 1) worked out at 80.71 nm. Moreover, the “Transfection efficiency (relative to SM-102, %)” value in the data set with HEPG2 cells [3] turned out to be 100%. Further, the “Cytotoxicity in HEPG2” value in the data set on HEPG2 cells [4] was “— (The toxicity of compounds 11 and 14 is less than 10%)”.
Consider `CCCCCCC(CCCC)COC(=O)CCCCO[C@H]1CN(CCCCCCO)C[C@H]1OCCCCC(=O)OCC(CCCC)CCCCCC` (stereo partly drawn) [Compound 22, bis(2-butyloctyl) 5,5′-(((3R,4S)-1-(6-hydroxyhexyl)pyrrolidine-3,4-diyl)bis(oxy))dipentanoate], for which, in data set [1], the “Encap)-sulation (%” value worked out at 98.18%. Also, in data set [2] (Table 1), the “LNP zeta potential (mV)” value worked out at 10.78 mV and the PDI was 0.05. For the same molecule, the “LNP size (nm)” value in data set [2] (z-average diameter, Table 1) came out at 148.20 nm.
Turning to `CCCCCCCCC(CCCCCCCC)OC(=O)CCO[C@H]1CN(CCCO)C[C@H]1OCCC(=O)OC(CCCCCCCC)CCCCCCCC` [Compound 2], the “Encap)-sulation (%” value in data set [1] worked out at 98.1%. In data set [2] (Table 1), the “LNP zeta potential (mV)” value is recorded as −5.73 mV and the PDI was determined as 0.033. The “LNP size (nm)” value in data set [2] (z-average diameter, Table 1) is on record as 74.65 nm.
